# Laboratory results taken from US20220143024A1, “METHODS OF USING IMIPRIDONES” (Board of Regents, The University of Texas System, priority 2019, published 2022).
# Read-outs that look alike come from different tables or passages of the source.
# Key:
# [1] = system: Z138 cells with D190A ClpP overexpression; assay: Z138 xenograft, D190A ClpP overexpression; format: in vivo, mice
# Protocol: (§1) Mice. For all the animal studies in the present study, the study protocols were approved by the Institutional Animal Care and Use Committee (IACUC) at the Princess Margaret Cancer Centre and MD Anderson Cancer Center. Two million Z138 cells transfected with the wild-type or D190A mutant CLPP-over-expressing vector and labeled with luciferase were injected to individual NSG mice (n=7 per treatment group, all female). After confirming engraftment measured by in vivo bioluminescence imaging on d 9 post-transplantation, ONC212 (50 mg/kg/d) or vehicle (water) is administered by oral gavage every other d until the mice got moribund. Tumor burden measured by luminescence was followed weekly until day 31. Independently, two million Z138 cells transfected with tetracycline-inducible Y118A mutant ClpP were labeled with luciferase and injected to individual NSG mice (n=10 per treatment group, all male). After confirming engraftment measured by in vivo bioluminescence imaging on day 5 post-transplantation, the mice were treated with or without tetracycline (2 mg/mL) in drinking water until moribund. One million OCI-AML2 cells were injected to individual SCID mice (n=10 per treatment group, all male). […]. Engraftment experiments using patient-derived xenograft AML cells were performed as previously reported (Ishizawa et al., 2016). […] The mice in each group were monitored for survival.
# [2] = system: primary AML patient samples; assay: Annexin V assay in primary AML samples; settings: 72 hours; incl. high-risk cytogenetics and molecular mutations
# Protocol: Bulk AML cells from AML patients and peripheral blood stem cells from healthy G-CSF-treated stem cell donors were isolated by Ficoll density centrifugation and apheresis, respectively. Isolated cells were maintained in IMDM supplemented with 10% FBS, or Myelocult H5100 (Stemcell Technologies, Vancouver, BC), supplemented with 100 ng/mL SCF, 10 ng/mL FLT3-L, 20 ng/mL IL-7, 10 ng/mL IL-3, 20 ng/mL IL-6, 20 ng/mL G-CSF, 20 ng/mL GM-CSF. Cells were supplemented with 100 μg/ml penicillin, and 100 U/ml streptomycin, at 37° C. and 5% CO2 in humidified atmosphere.
# [3] = system: ClpP interactors (SDHA, SDHB, NDUFA12) in OCI-AML3 cells; assay: Immunoblot of respiratory chain complex subunits, OCI-AML3; format: cell-based; settings: 24 hours, dose dependent
# Protocol: Cells were lysed at a density of 1×10^6/50 μL (for AML cells) or 1×10^6/100 μL (for HCT116 cells) in protein lysis buffer (0.25 M Tris-HCl, 2% sodium dodecylsulfate, 4% β-mercaptoethanol, 10% glycerol, 0.02% bromophenol blue). Protein lysates for Oxphos cocktail antibodies were incubated for 30 min at room temperature, otherwise, at 95° C. for 5 min for denaturing (antibodies used are listed below). Immunoblot analysis was performed as reported previously (Ishizawa et al., 2016). Briefly, an equal amount of protein lysate was loaded onto a 10-12% SDS-PAGE gel (Bio-Rad), and quantitated using the Odyssey imaging system (LI-COR Biotechnology, Lincoln, Nebr.). Antibodies used: total OXPHOS rodent WB antibody cocktail, anti-SDHA, anti-SDHB, anti-NDUFA12, anti-ClpP, anti-ATF4, anti-eIF2α, anti-phospho-eIF2α (S51), anti-ClpP, anti-CQCRC2, anti-CS, anti-NDUFB8, anti-β-actin, and anti-GAPDH.
# [4] = system: CLPP+/+ T-REx HEK293 cells; assay: Alamar blue viability, CLPP+/+ T-REx HEK293; settings: CLPP+/+ (wild type) T-REx HEK293, 72 h
# Protocol: (§3) After a 72-h period of incubation at 37° C., 10 μL of Alamar Blue was added to the culture medium and the mixture was incubated for an additional 2 h at 37° C. Cytotoxicity was measured using spectrophotometry of fluorescence at excitation 560 nm & emission 590 nm (SpectraMax M3, Molecular Devices, San Jose, Calif.). […] Annexin V and PI were stained after 72 h incubation. Annexin V- and PI-negative cells were counted as live cells.
# [5] = target: T1, human ClpP (recombinant WT ClpP) (Homo sapiens, UniProt Q16740); assay: ClpP enzymatic assays with fluorogenic substrates (cell-free); format: biochemical; settings: for EC50: without ClpX
# T1 construct: SUMO fusion (pETSUMO2); made in house; host or cells: E. coli SG1146
# Protocol: (§2) Hill coefficient was determined using Origin7, Pharmacology—Dose-response curve with log (compound concentration) as the independent variable.
# [6] = system: CLPP−/− T-REx HEK293 cells; assay: Alamar blue viability, CLPP−/− T-REx HEK293; settings: 72 h
# Protocol: as §3
# [7] = system: Z138 cells with WT ClpP overexpression; assay: Z138 xenograft, WT ClpP overexpression; format: in vivo, mice; settings: WT ClpP group
# Protocol: as §1
# ClpP = target: T2, ClpP (Homo sapiens, UniProt Q16740); assay: Gel-based α-casein degradation by ClpP; format: biochemical; settings: without ClpX; 3 h; SDS-PAGE
# T2 construct: SUMO fusion (pETSUMO2); made in house; host or cells: E. coli SG1146
# [8] = system: ONC201-resistant (ONC-R) Z138 cells carrying D190A mutant ClpP; assay: Sensitivity of ONC201-resistant Z138 cells; settings: Annexin V assay; 72 hours
# Protocol: as §3
# [9] = target: endogenous ClpP in OCI-AML2 cells (Homo sapiens, UniProt Q16740); settings: 30 min, at concentrations associated with activation in enzymatic assays
# [10] = system: patient-derived xenograft AML cells (leukemia-initiating cells); assay: Engraftment of ex vivo treated patient-derived xenograft AML cells; format: in vivo; settings: cells treated ex vivo with 250 nM for 36 hours, injected into NSG mice; untreated 36 days; p<0.0001
# Protocol: as §1
# recombinant D190A ClpP = target: T3, recombinant D190A ClpP (Homo sapiens, UniProt Q16740, D190A); assay: ClpP enzymatic assays, D190A ClpP; format: biochemical; settings: peptide (AC-WLA-AMC) or protein (FITC-casein) substrates
# T3 construct: SUMO fusion (pETSUMO2); made in house; host or cells: E. coli SG1146
# Protocol: as §2
# [11] = system: OCI-AML2, OCI-AML3, TEX, Z138, HCT-116, HeLa, OC316 and SUM159 cells; assay: Growth and viability of leukemia, lymphoma and solid tumor cell lines; settings: tested cell lines; 72-hour exposure
# Protocol: as §3
# [12] = system: Z138 cells with tetracycline-inducible mutant ClpP (Y118A); assay: Z138 xenograft with tetracycline-inducible Y118A mutant ClpP; format: in vivo; settings: tetracycline 2 mg/mL in drinking water induces Y118A ClpP; untreated 40 days; p<0.0001; NSG mice
# Protocol: as §1
# OCI-AML2 cells = assay: Alamar blue viability assay, OCI-AML2; format: cell-based; settings: 72-hour exposure, read-out: IC50, growth and viability
# Protocol: […]. After a 72-h period of incubation at 37° C., 10 μL of Alamar Blue was added to the culture medium and the mixture was incubated for an additional 2 h at 37° C. Cytotoxicity was measured using spectrophotometry of fluorescence at excitation 560 nm & emission 590 nm (SpectraMax M3, Molecular Devices, San Jose, Calif.). For apoptosis analysis, annexin V and PI binding assays were performed to assess apoptosis as described previously (Ishizawa et al., 2016). […]. Annexin V and PI were stained after 72 h incubation. Annexin V- and PI-negative cells were counted as live cells.
# [13] = substrate FITC-casein, read-out: EC50, ClpP cleavage of FITC-casein
# T1 sequence (Q16740 57-277): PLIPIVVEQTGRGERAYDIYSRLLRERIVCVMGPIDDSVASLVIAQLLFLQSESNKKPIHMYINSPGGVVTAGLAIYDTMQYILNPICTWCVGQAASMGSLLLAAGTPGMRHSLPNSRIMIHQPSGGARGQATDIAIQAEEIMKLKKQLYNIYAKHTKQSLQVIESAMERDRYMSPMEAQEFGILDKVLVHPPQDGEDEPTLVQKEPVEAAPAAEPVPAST
# T3 sequence (Q16740 57-277 D190A): as the sequence (Q16740 57-277) above, with D134A counted along it
# Chain of endogenous ClpP in OCI-AML2 cells (Q16740 57-277): as the sequence (Q16740 57-277) above
# T2 sequence (Q16740 57-277): as above
compound,measurement,setting,value
O=C1C2=C(CCN(Cc3ccccc3)C2)N2CCN=C2N1Cc1ccc(C(F)(F)F)cc1 [ONC212],"tumor burden (luciferase, IVIS imaging)","[1]; D190A ClpP group, 50 mg/kg every other day, oral gavage, NSG mice",no discernable anti-tumor activity
same,median survival,"[1]; D190A mutant group, vehicle 53 days, p=0.40",54 days
same,apoptosis in primary AML patient samples,[2],induced apoptosis
same,level of identified ClpP interactors,[3],reduced the level
same,growth and viability,[4],reduced the growth and viability
same,Hill coefficient,"[5]; FITC-casein data, positive cooperativity",4.98±0.47
same,mode of activation,[5]; pre-incubation of ClpP with compound (0-60 min) did not increase activation,reversible (non-covalent)
same,EC50,"[5]; read-out: EC50, ClpP cleavage of FAPHMALVPC (Clptide), substrate FAPHMALVPC (Clptide), read-out: EC50, ClpP cleavage of […] (Clptide)",3.37 µM
same,EC50,"[5]; substrate AC-WLA-AMC, read-out: EC50, ClpP cleavage of AC-WLA-AMC",0.18 µM
same,EC50,"[5]; substrate Ac-Phe-hArg-Leu-ACC, read-out: EC50, ClpP cleavage of Ac-Phe-hArg-Leu-ACC",0.37 µM
same,EC50,[5]; [13],0.46 µM
same,growth and viability,[6],resistant
same,"tumor burden (luciferase, IVIS imaging)","[7]; 50 mg/kg every other day, oral gavage, NSG mice",significantly reduced
same,median survival,"[7]; vehicle 49 days, p=0.008",55 days
same,degradation of α-casein by ClpP,ClpP,activated ClpP and induced cleavage of α-casein
same,sensitivity of ONC-R Z138 cells,[8],cross-resistant
same,binding to endogenous ClpP in cells,[9],bound endogenous ClpP
same,median survival,[10],82 days
same,activation of proteolytic activity of D190A ClpP,recombinant D190A ClpP,could not activate
same,"IC50 values, growth and viability",[11],nanomolar range
CC[C@]1(O)C[C@H]2CN(CCc3c([nH]c4ccccc34)[C@@](C(=O)OC)(c3cc4c(cc3OC)N(C=O)[C@H]3[C@@](O)(C(=O)OC)[C@H](OC(C)=O)[C@]5(CC)C=CCN6CC[C@]43[C@@H]65)C2)C1 [Vincristine],sensitivity of ONC-R Z138 cells,[8],retained similar sensitivity
CN(C)[C@@H]1C(O)=C(C(N)=O)C(=O)[C@@]2(O)C(O)=C3C(=O)c4c(O)cccc4[C@@](C)(O)[C@H]3C[C@@H]12 [tetracycline],median survival,[12],48 days
COc1cccc2c1C(=O)c1c(O)c3c(c(O)c1C2=O)C[C@@](O)(C(=O)CO)C[C@@H]3O[C@H]1C[C@H](N)[C@H](O)[C@H](C)O1 [Adriamycin],sensitivity of ONC-R Z138 cells,[8],retained similar sensitivity
Acyldepsipeptide 1 [ADEP1],IC50,OCI-AML2 cells,50 µM
same,potency as ClpP activator (comparison),[5]; ADEP1 versus ONC201 and ONC212,less potent
same,cleavage of non-ClpP substrate MCA-Pro-Leu-Gly-Pro-D-Lys (DNP)-OH,[5]; after activating ClpP,not cleaved
same,EC50,[5]; [13],21.3 µM
